Positions of bridges follow the written chain, without caps; N, C: chain ends. Non-standard residues stand in square brackets, D forms with d. Residues, ends and D or L forms follow the SMILES beside them. *: point of attachment. hPhe(3,5-F2-4-CF3) = N[C@@H](CCc1cc(F)c(C(F)(F)F)c(F)c1)C(=O)O; hPhe(3-Cl-4-CF3) = N[C@@H](CCc1ccc(C(F)(F)F)c(Cl)c1)C(=O)O; Pro(trans-4-Ph) = O=C(O)[C@@H]1C[C@@H](c2ccccc2)CN1; 3Oxa8azabicyclo(3.2.1)octane = C1CC2COCC1N2*; NMePhe(4-Cl) = CN[C@@H](Cc1ccc(Cl)cc1)C(=O)O; NMeGly(cPent) = CN[C@H](C(=O)O)C1CCCC1; NMeGly(cBu) = CN[C@H](C(=O)O)C1CCC1; NMeCha = CN[C@@H](CC1CCCCC1)C(=O)O; NEtLeu = CCN[C@@H](CC(C)C)C(=O)O; NMeChg = CN[C@H](C(=O)O)C1CCCCC1; NMeD = CN[C@@H](CC(=O)O)C(=O)O; AllylGly = C=CC[C@H](N)C(=O)O; NMeL = CN[C@@H](CC(C)C)C(=O)O; NPrAla = CCCN[C@@H](C)C(=O)O; NMeV = CN[C@H](C(=O)O)C(C)C; d(β3hA) = C[C@@H](N)CC(=O)O; NMeS = CN[C@@H](CO)C(=O)O; Piperidide = C1CCN(*)CC1; Pyrrolidide = C1CCN(*)C1; Ac5c = NC1(C(=O)O)CCCC1; Aze = O=C(O)[C@@H]1CCN1; Aib = CC(C)(N)C(=O)O; Sar = CNCC(=O)O; Propyl = CCC*
How the values were obtained:
[1] = biological target: T1, Kras and SOS1 (biotin-tagged human Kras loaded with GDP, His-tagged human SOS1) (Homo sapiens, UniProt P01116, G12D); test: Protein-protein interaction inhibition between Kras and SOS1 (KrasGl2D-SOS PPI) using AlphaScreen; assay type: binding; conditions: AlphaScreen; biotin-tagged human Kras loaded with GDP, His-tagged human SOS1; read-out: KRAS G12D-SOS PPI IC50
T1 construct: made in house; host or cells: E. coli (stated for Kras only)
T1 sequence (P01116 1-188 isoform P01116-2 G12D): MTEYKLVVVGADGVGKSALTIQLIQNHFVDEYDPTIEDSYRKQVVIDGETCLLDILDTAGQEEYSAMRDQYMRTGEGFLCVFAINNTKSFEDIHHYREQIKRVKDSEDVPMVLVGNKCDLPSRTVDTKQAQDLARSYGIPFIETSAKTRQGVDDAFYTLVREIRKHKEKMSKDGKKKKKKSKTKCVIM
In short: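 Donor beads (nickel) hold His-SOS1; acceptor beads (streptavidin) hold biotin-Kras bound to GDP. Signal measured at 520-620 nm following 680 nm excitation.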

[2] = tested on: Human pancreatic cancer cell line AsPC-1; test: Measurement of AsPC-1 cell growth inhibition (AsPC-1 CGI); assay type: cell-based; conditions: 96 h
In short: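 AsPC-1 cells in 15% FBS RPMI-1640 were exposed to test compound for 96 hours at 37° C, with CellTiter-Glo as endpoint.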

| SMILES | IC50 [1] [nM] | IC50 [2] [nM] |
| --- | --- | --- |
| CC[C@H](C)[C@@H]1NC(=O)[C@H](CC(C)C)N(C)C(=O)C[C@@H](C)NC(=O)[C@H](CC(C)C)N(C)C(=O)C(C)(C)NC(=O)[C@H](CC(C)C)N(C)C(=O)[C@H](CCc2cc(F)c(C(F)(F)F)c(F)c2)NC(=O)CN(C)C(=O)[C@H](CC2CCCCC2)N(C)C(=O)CN(C)C(=O)CN(C)C1=O [Compound 119] (cyclo([Aib][NMeL][d(β3hA)][NMeL]I[Sar][Sar][NMeCha][Sar][hPhe(3,5-F2-4-CF3)][NMeL])) | 39 | 100 to 500 |
| CC[C@H](C)[C@@H]1NC(=O)[C@H](CC(C)C)N(C)C(=O)C[C@@H](C)NC(=O)[C@H](C(C)C)N(C)C(=O)C2(CCCC2)NC(=O)[C@@H]2CCCN2C(=O)[C@H](CCc2ccc(C(F)(F)F)c(Cl)c2)NC(=O)CN(C)C(=O)[C@H](Cc2ccc(Cl)cc2)N(C)C(=O)CN(C)C(=O)CN(C)C1=O [Compound 121] (cyclo([Ac5c][NMeV][d(β3hA)][NMeL]I[Sar][Sar][NMePhe(4-Cl)][Sar][hPhe(3-Cl-4-CF3)]P)) | 5.4 | 100 to 500 |
| CC[C@H](C)[C@@H]1NC(=O)[C@H](CC(C)C)N(C)C(=O)C[C@@H](C)NC(=O)[C@H](C2CCCC2)N(C)C(=O)C2(CCCC2)NC(=O)[C@@H]2CCCN2C(=O)[C@H](CCc2ccc(C(F)(F)F)c(Cl)c2)NC(=O)CN(C)C(=O)[C@H](CC2CCCCC2)N(C)C(=O)CN(C)C(=O)CN(C)C1=O [Compound 122] (cyclo([Ac5c][NMeGly(cPent)][d(β3hA)][NMeL]I[Sar][Sar][NMeCha][Sar][hPhe(3-Cl-4-CF3)]P)) | 8.6 | 100 to 500 |
| CCCOC[C@H]1C(=O)N(C)CC(=O)N[C@@H](CCc2ccc(C(F)(F)F)c(Cl)c2)C(=O)N2CCC[C@H]2C(=O)NC2(CCCC2)C(=O)N(C)[C@@H](C2CCCCC2)C(=O)N(C)[C@H](C(=O)N2CCCC2)CC(=O)N(C)[C@@H](C2CCC2)C(=O)N[C@@H]([C@@H](C)CC)C(=O)N(C)CC(=O)N(C)CC(=O)N1C [Compound 126] ([NMeGly(cBu)]I[Sar][Sar][NMeS](Propyl)[Sar][hPhe(3-Cl-4-CF3)]P[Ac5c][NMeChg][NMeD]-Pyrrolidide; lactam N-11) | 0.5 | 50 to 100 |
| CCCN1C(=O)C[C@@H](C(=O)N2CCCCC2)N(C)C(=O)[C@H](C(C)C)N(C)C(=O)C2(CCCC2)NC(=O)[C@@H]2CCCN2C(=O)[C@H](CCc2ccc(C(F)(F)F)c(Cl)c2)NC(=O)CN(C)C(=O)[C@H](CC2CCCCC2)N(C)C(=O)CN(C)C(=O)CN(C)C(=O)[C@H]([C@@H](C)CC)NC(=O)[C@@H]1C [Compound 131] ([NPrAla]I[Sar][Sar][NMeCha][Sar][hPhe(3-Cl-4-CF3)]P[Ac5c][NMeV][NMeD]-Piperidide; lactam N-11) | 3.3 | 100 to 500 |
| CC[C@H](C)[C@@H]1NC(=O)[C@H](CC(C)C)N(CC)C(=O)C[C@@H](C(=O)N2CCCCC2)N(C)C(=O)[C@H](C2CCCCC2)N(C)C(=O)C2(CCCC2)NC(=O)[C@@H]2CCCN2C(=O)[C@H](CCc2ccc(C(F)(F)F)c(Cl)c2)NC(=O)CN(C)C(=O)[C@H](CC2CCCCC2)N(C)C(=O)CN(C)C(=O)CN(C)C1=O [Compound 137] ([NEtLeu]I[Sar][Sar][NMeCha][Sar][hPhe(3-Cl-4-CF3)]P[Ac5c][NMeChg][NMeD]-Piperidide; lactam N-11) | 0.76 | 50 to 100 |
| CCCOC[C@H]1C(=O)N(C)CC(=O)N[C@@H](CCc2ccc(C(F)(F)F)c(Cl)c2)C(=O)N2CCC[C@H]2C(=O)NC2(CCCC2)C(=O)N(C)[C@@H](C2CCCCC2)C(=O)N(C)[C@H](C(=O)N2C3CCC2COC3)CC(=O)N(C)[C@@H](C2CCC2)C(=O)N[C@@H]([C@@H](C)CC)C(=O)N(C)CC(=O)N(C)CC(=O)N1C [Compound 140] ([NMeGly(cBu)]I[Sar][Sar][NMeS](Propyl)[Sar][hPhe(3-Cl-4-CF3)]P[Ac5c][NMeChg][NMeD]-{3Oxa8azabicyclo(3.2.1)octane}; lactam N-11) | 0.81 | 100 to 500 |
| CC[C@H](C)[C@@H]1NC(=O)[C@H](CC(C)C)N(C)C(=O)C[C@@H](C(=O)N2CCCCC2)N(C)C(=O)[C@H](C2CCCCC2)N(C)C(=O)C2(CCCC2)NC(=O)[C@@H]2C[C@@H](c3ccccc3)CN2C(=O)[C@H](CCc2ccc(C(F)(F)F)c(Cl)c2)NC(=O)CN(C)C(=O)[C@H](CC2CCCCC2)N(C)C(=O)[C@@H]2CCN2C(=O)CN(C)C1=O [Compound 147] ([NMeL]I[Sar][Aze][NMeCha][Sar][hPhe(3-Cl-4-CF3)][Pro(trans-4-Ph)][Ac5c][NMeChg][NMeD]-Piperidide; lactam N-11) | 6.7 | 100 to 500 |
| C=CC[C@@H]1NC(=O)[C@H](CC(C)C)N(C)C(=O)C[C@@H](C(=O)N2CCCCC2)N(C)C(=O)[C@H](C2CCCCC2)N(C)C(=O)C2(CCCC2)NC(=O)[C@@H]2CCCN2C(=O)[C@H](CCc2ccc(C(F)(F)F)c(Cl)c2)NC(=O)CN(C)C(=O)[C@H](CC2CCCCC2)N(C)C(=O)CN(C)C(=O)CN(C)C1=O [Compound 164] ([NMeL][AllylGly][Sar][Sar][NMeCha][Sar][hPhe(3-Cl-4-CF3)]P[Ac5c][NMeChg][NMeD]-Piperidide; lactam N-11) | 2.2 | 100 to 500 |
